# Measurements: US9585854B2, “N-acetyl-L-cysteine for use in in vitro fertilization” (IASOMAI AB, priority 2012, dated 2017)
# How the values were obtained:
# [1] = set-up: species or system human; details: in vivo
# Excerpt: GSH is e.g. normally conjugated to reactive metabolites formed by paracetamol and helps detoxify them. When paracetamol is overdosed GSH is however depleted and the paracetamol metabolites start reacting with cellular proteins, eventually leading to cell death. In the treatment of fulminant hepatic failure after paracetamol poisoning NAC acts instead of GSH in the detoxification of paracetamol metabolites.
# The composition of the present invention, comprising NAC for the treatment of IVF according to one embodiment to be administered intravenously at a dose between approximately 50 and 150 mg/kg/day.
# For overcoming this in cases of oral administration, an option is to provide NAC in a formulation with gastric protection, suitable for preventing NAC release/solubility in the stomach. Such formulations are well known in the art and may be used with the present invention. For example, tablet coatings that are resistant to gastric fluids and allow release of the drug only in the intestine, after its transit through the stomach, may be used. Commonly used formulations include polymers such as cellulose derivatives, methacrylate amino ester copolymers. […]
# [2] = tested on: Isolated uteri from virgin Wistar rats; assay: isolated organ bath study of uterine contractions; set-up: species or system rat
# Protocol: Animals were kept at 22° C., housed 3 per cage and fed ad libitum. Isolated uteri from virgin Wistar rats (200-280 g) in estrous, which was determined by examination of a daily vaginal smear, were used.
# Protamine sulphate (PS) and NAC were dissolved in pure water.
# All rats were sacrificed by cervical dislocation. The uterine horns were excised, carefully cleaned and mounted vertically in a 10 ml volume organ bath containing De Jalon's solution (NaCl 154 mM, KCl 5.6 mM, CaCl2×2H2O 0.41 mM, NaHCO 2 5.9 mM and glucose 2.8 mM), under 1 g tension, aerated with 95% oxygen and 5% carbon dioxide at 37° C. […] After 10 min increasing concentrations of PS were added until the total cessation of contractions was observed.
# Myometrial tension was recorded isometrically with an organ bath and transducer.
# Effects of treatments on uterine contractions were calculated as percentages for control, untreated and contracting conditions. Each data value is expressed as the mean±SEM. differences between groups were analyzed by two-way ANOVA. EC50 values were compared using one-way ANOVA
# uterine contractions = assay: clinical case: intravenous NAC prior to embryo transfer; type: in vivo, human; details: patient, NAC 50 mg/kg intravenous infusion 60 min
# Protocol: The very first case of clinical application of NAC prior to embryo transfer was recently documented. NAC was administered in a concentration of 50 mg/kg to a patient who had previously undergone five embryo transfers involving a total number of 8 good-quality embryos. Immediately before embryo transfer, the presence of increased uterine contractile activity was confirmed by ultrasound. NAC 50 mg/kg body weight was administered in intravenous infusion for 60 min. Embryo transfer was carried out 60 min from the end of the 60 min NAC 50 mg/kg body weight administration. Both before connecting the infusion and directly before embryo transfer, a transvaginal sagittal scan recording was performed.
structure (smiles),measurement,setting,value
"CC(=O)N[C@@H](CS)C(=O)O [NAC, N-acetyl-L-cysteine]",side effect of high oral doses,[1],may cause abdominal pain
same,effect of pre-treatment on PS-induced relaxation,"[2]; NAC pre-treatment 1 μg/ml, spontaneously active uteri",increased PS-induced relaxation
same,effect of pre-treatment on PS-induced relaxation,[2]; calcium ion-induced uterine contractions,modulated PS-induced relaxation
same,amplitude of uterine contractions,uterine contractions,apparent decrease in their amplitude
same,uterine contractions directly before embryo transfer,"uterine contractions; from 10 contractions per 3 min before infusion, transvaginal scan",five
